In ChEMBL document CHEMBL1671734, “An ertapenem-resistant extended-spectrum-beta-lactamase-producing Klebsiella pneumoniae clone carries a novel OmpK36 porin variant” (2010):
In brackets after ≈: the same amount, converted by molar mass.

Columns and labels:
Format in all cases: functional
Klebsiella pneumoniae [1] = test: Antimicrobial activity against ESBL-positive Klebsiella pneumoniae 71697 harboring porin OmpK36V mutant gene by microdilution method
Klebsiella pneumoniae [2] = test: Antimicrobial activity against ESBL-positive Klebsiella pneumoniae 69928 harboring porin OmpK36V mutant gene by microdilution method
Klebsiella pneumoniae [3] = test: Antimicrobial activity against ESBL-positive Klebsiella pneumoniae 69036 harboring porin OmpK36V mutant gene by microdilution method
Klebsiella pneumoniae [4] = test: Antimicrobial activity against ESBL-positive Klebsiella pneumoniae 50748 harboring porin OmpK36 gene by microdilution method
Klebsiella pneumoniae [5] = test: Antimicrobial activity against ESBL-positive Klebsiella pneumoniae 18260 harboring pSHA2-encoded porin OmpK36 gene by microdilution method
Klebsiella pneumoniae [6] = test: Antimicrobial activity against ESBL-positive Klebsiella pneumoniae 17829 harboring pSHA2-encoded porin OmpK36 gene by microdilution method
Klebsiella pneumoniae [7] = test: Antimicrobial activity against ESBL-positive Klebsiella pneumoniae 19039 harboring porin OmpK36V mutant gene by microdilution method
Klebsiella pneumoniae [8] = test: Antimicrobial activity against ESBL-positive Klebsiella pneumoniae 18918 harboring porin OmpK36V mutant gene by microdilution method
Klebsiella pneumoniae [9] = test: Antimicrobial activity against ESBL-positive Klebsiella pneumoniae 18567 harboring porin OmpK36V mutant gene by microdilution method
Klebsiella pneumoniae [10] = test: Antimicrobial activity against ESBL-positive Klebsiella pneumoniae 18260 by microdilution method
Klebsiella pneumoniae [11] = test: Antimicrobial activity against ESBL-positive Klebsiella pneumoniae 17834 harboring porin OmpK36V mutant gene by microdilution method
Klebsiella pneumoniae [12] = test: Antimicrobial activity against ESBL-positive Klebsiella pneumoniae 17830 harboring porin OmpK36V mutant gene by microdilution method
Klebsiella pneumoniae [13] = test: Antimicrobial activity against ESBL-positive Klebsiella pneumoniae 17829 by microdilution method
Klebsiella pneumoniae [14] = test: Antimicrobial activity against ESBL-positive Klebsiella pneumoniae 17049 harboring porin OmpK36V mutant gene by microdilution method
Klebsiella pneumoniae [15] = test: Antimicrobial activity against ESBL-positive Klebsiella pneumoniae 16855 harboring porin OmpK36 and OmpK35 genes by Etest by microdilution method
Klebsiella pneumoniae [16] = test: Antimicrobial activity against ESBL-positive Klebsiella pneumoniae 6267 harboring porin OmpK36V mutant gene by microdilution method
Klebsiella pneumoniae [17] = test: Antimicrobial activity against ESBL-positive Klebsiella pneumoniae 11932 harboring porin OmpK36 gene by microdilution method
Klebsiella pneumoniae [18] = test: Antimicrobial activity against ESBL-positive Klebsiella pneumoniae 16830 harboring porin OmpK36 gene by microdilution method
Klebsiella pneumoniae [19] = test: Antimicrobial activity against ESBL-positive Klebsiella pneumoniae 25008 by microdilution method
Klebsiella pneumoniae [20] = test: Antimicrobial activity against ESBL-positive Klebsiella pneumoniae 26077 harboring porin OmpK36V mutant gene by microdilution method
Klebsiella pneumoniae [21] = test: Antimicrobial activity against ESBL-positive Klebsiella pneumoniae 287942 harboring porin OmpK36 gene by microdilution method
Klebsiella pneumoniae [22] = test: Antimicrobial activity against ESBL-positive Klebsiella pneumoniae 29459 harboring porin OmpK36 gene by microdilution method
Klebsiella pneumoniae [23] = test: Antimicrobial activity against ESBL-positive Klebsiella pneumoniae 29830 harboring porin OmpK36V mutant gene by microdilution method
Klebsiella pneumoniae [24] = test: Antimicrobial activity against ESBL-negative Klebsiella pneumoniae 299332 harboring porin OmpK36 gene by microdilution method
Klebsiella pneumoniae [25] = test: Antimicrobial activity against ESBL-negative Klebsiella pneumoniae 30018 harboring porin OmpK35 gene by microdilution method
Klebsiella pneumoniae [26] = test: Antimicrobial activity against ESBL-positive Klebsiella pneumoniae 31750 harboring porin OmpK36 gene by microdilution method

C[C@@H](O)[C@H]1C(=O)N2C(C(=O)O)=C(S[C@@H]3CN[C@H](C(=O)Nc4cccc(C(=O)O)c4)C3)[C@H](C)[C@H]12 [ERTAPENEM]
MIC (Klebsiella pneumoniae [1]): 8 µg/mL (≈ 16.8 µM) | MIC (Klebsiella pneumoniae [2]): 6 µg/mL (≈ 12.6 µM) | MIC (Klebsiella pneumoniae [3]): 6 µg/mL (≈ 12.6 µM) | MIC (Klebsiella pneumoniae [4]): 0.25 µg/mL (≈ 0.526 µM) | MIC (Klebsiella pneumoniae [5]): 16 µg/mL (≈ 33.6 µM) | MIC (Klebsiella pneumoniae [6]): 16 µg/mL (≈ 33.6 µM) | MIC (Klebsiella pneumoniae [7]): 8 µg/mL (≈ 16.8 µM) | MIC (Klebsiella pneumoniae [8]): 8 µg/mL (≈ 16.8 µM) | MIC (Klebsiella pneumoniae [9]): 6 µg/mL (≈ 12.6 µM) | MIC (Klebsiella pneumoniae [10]): 128 µg/mL (≈ 269 µM) | MIC (Klebsiella pneumoniae [11]): 6 µg/mL (≈ 12.6 µM) | MIC (Klebsiella pneumoniae [12]): 8 µg/mL (≈ 16.8 µM) | MIC (Klebsiella pneumoniae [13]): 128 µg/mL (≈ 269 µM) | MIC (Klebsiella pneumoniae [14]): 8 µg/mL (≈ 16.8 µM) | MIC (Klebsiella pneumoniae [15]): 0.094 µg/mL (≈ 0.198 µM) | MIC (Klebsiella pneumoniae [16]): 4 µg/mL (≈ 8.41 µM) | MIC (Klebsiella pneumoniae [17]): 0.19 µg/mL (≈ 0.4 µM) | MIC (Klebsiella pneumoniae [18]): 0.125 µg/mL (≈ 0.263 µM) | MIC (Klebsiella pneumoniae [19]): 16 µg/mL (≈ 33.6 µM) | MIC (Klebsiella pneumoniae [20]): 6 µg/mL (≈ 12.6 µM) | MIC (Klebsiella pneumoniae [21]): 0.19 µg/mL (≈ 0.4 µM) | MIC (Klebsiella pneumoniae [22]): 0.25 µg/mL (≈ 0.526 µM) | MIC (Klebsiella pneumoniae [23]): 6 µg/mL (≈ 12.6 µM) | MIC (Klebsiella pneumoniae [24]): 0.016 µg/mL (≈ 0.0336 µM) | MIC (Klebsiella pneumoniae [25]): 0.023 µg/mL (≈ 0.0484 µM) | MIC (Klebsiella pneumoniae [26]): 0.125 µg/mL (≈ 0.263 µM)
